In patent publication US6794383B2, “Heart muscular cell apoptosis inhibitors and remedies/preventives for heart diseases” (Takeda Chemical Industries, Ltd., priority 2000, dated 2004):

Experiments:
[1] = system: primary heart muscle cells derived from newborn rats; assay: Inhibitory activity on heart muscle cell apoptosis (serum-free culture, viable cell number by WST-8); format: cell-based, rat; conditions: mean ± SD of three independent experiments; concentration required to increase the mean viable cell number by 30% vs absence of test compound; serum-free Medium 199, 4 days
Description: Newborn rats (within 1 day after birth) were obtained from pregnant Wister rats purchased from Charles River, anesthetized under ether, and sterilized with 70% ethanol, and then their hearts were excised with tweezers. The excised hearts were washed with a phosphate-buffered physiological saline (T900; Takara) and cut into pieces with surgical scissors. These tissue pieces were washed 4 to 5 times with a phosphate-buffered physiological saline to remove a majority of blood-derived non-heart muscle cells. To the tissue pieces derived from 10 newborns, 5 ml of enzyme solution (1.25 mg trypsin (Difco) and 0.25 mg collagenase (Sigma) per ml of phosphate-buffered saline (PBS)) was added and the mixture was stirred with a stirrer at 37° C. for 15 mins. Another 2.5 ml enzyme solution was then added twice repeatedly at a 15-minutes interval. Then, Medium 199 (Gibco) containing 10% fetal calf serum (Biowiker) was added in a half volume of the enzyme solution to terminate the enzyme reaction. The cells were filtered through a Cell Strainer (Falcon) and then centrifuged at 400×g for 5 minutes, whereby the cells were collected.
The cells thus collected from 10 newborns were suspended in 50 ml Medium 199 containing 10% fetal calf serum, plated onto 100 mm Petri dishes (Iwaki) in a volume of 10 ml/dish and cultured for 1 hour in a CO2 incubator set at 5% CO2 and 37° C. The cells were then recovered, filtered through a Cell Strainer and centrifuged at 400×g for 5 minutes to collect the primary heart muscle cells derived from newborn rats.
Then, the heart muscle cells from 10 newborn rats were suspended in 2 ml low-isotonic solution (prepared by dissolving 8.29 g NH4Cl, 1.0 g KHCO3, 37 mg EDTA/2Na (ethylenediaminetetraacetic acid disodium)(Dojindo) in 1 L of water) and left for 3 minutes to disrupt erythrocytes. After 10 ml Medium 199 containing 10% fetal calf serum was added thereto, the primary heart muscle cells from newborn rats were collected by centrifugation at 400×g for 5 minutes. The cells were suspended in Medium 199 containing 10% fetal calf serum and then filtered through a cell strainer. After 0.3% trypan blue was added to, and mildly mixed with, an aliquot of the resulting cell suspension, the number of heart muscle cells was counted on an erythrocyte counting plate.
The primary heart muscle cells from newborn rats were suspended at a density of 3×10^6 cells/ml in Medium 199 containing 10% fetal calf serum, put onto a 96-well plate in a volume of 0.1 ml/well, and then cultured in a CO2 incubator set at 5% CO2 and 37° C. After the plate was stirred with a micromixer (Taiyo Kagaku Kogyo), the medium was exchanged 3 times with serum-free Medium 199, and then test compounds (Compounds 1 to 5 obtained in Reference Examples) were added thereto. The cells were cultured for additional 4 days to induce apoptosis. Then, fetal calf serum was added thereto at a concentration of 10%, and the cells were further cultured for about 17 hours in a CO2 incubator set at 5% CO2 and 37° C. Finally, the number of viable cells was determined with Cell Counting Kit (Dojindo) using WST-8 (2-(2-methoxy-4-nitrophenyl)-3-(4-nitrophenyl)-5-(2,4-disulfophenyl)-2H-tetrazolium, monosodium salt) as the coloring substrate to determine the inhibition of the heart muscle cell apoptosis.
The above-mentioned exeriment was tripicated in an independent manner. […]

[2] = system: phosphorylated STAT3 (Tyr705) / gp130 signal; assay: Enhancing action on gp130 signal: LIF-induced phosphorylation of STAT3 (Tyr705) by immunoblotting; format: cell-based, rat; conditions: 0.01-10 μM Compound 1 with 10 U/ml human LIF, 30 minutes, primary heart muscle cells from newborn rats, FIG. 1
Description: STAT3 (signal transducers and activators of transcription-3) is a primary positive regulatory factor involved in transmission of gp130 signal. Phosphorylation of the tyrosine residue at the 705th position (Tyr705) is essential for activation of STAT3. Accordingly, this phosphorylation can be used as an indicator of activation of STAT3, that is, of an enhancing action on gp130 signal.
Primary heart muscle cells derived from newborn rats were stimulated with a small amount of LIF (Leukemia inhibitory factor) to induce gp130 signal in the presence of a test compound (Compound 1 obtained in Reference Example 1). Phosphorylation of Tyr705 was examined by immunoblotting with an antibody specifically recognizing phosphorylated STAT3, to confirm the enhancing action of the test compound on gp130 signal.
The primary heart muscle cells derived from newborn rats, obtained in the method of Experimental Example 1, were suspended at a density of 5×10^6 cells/ml in Medium 199 containing 10% fetal bovine serum, then put to a 12-well plate (ASAHI TECHNO GLASS CORPORATION) in a volume of 2.0 ml/well, and cultured for 1 day in a 5% CO2 incubator set at 37° C. […]

## O=c1nc(-c2ccncc2)sc2ccccc12 [Compound 3, 2-(4-pyridyl)-4H-1,3-benzothiazin-4-one]
[1]
  Minimal Effective Concentration: 0.014 ± 0.0099 µM

## O=C1N/C(=C\C(=O)N2CCCCC2)Sc2ccccc21 [Compound 5, 2-[2-oxo-2-(1-piperidinyl)ethylidene]-2,3-dihydro-4H-1,3-benzothiazin-4-one]
[1]
  Minimal Effective Concentration: 0.06 ± 0.041 µM

## O=c1nc(-c2ccccn2)sc2ccccc12 [Compound 1, 2-(2-Pyridyl)-4H-1,3-benzothiazin-4-one]
[1]
  Minimal Effective Concentration: 0.015 ± 0.011 µM
[2]
  phosphorylation of STAT3 induced by LIF: can further promote phosphorylation of STAT3

## CCOC(=O)/C=C1\NC(=O)c2ccccc2S1 [Compound 4, Ethyl 2-(4-oxo-3,4-dihydro-2H-1,3-benzothiazin-2-ylidene)acetate]
[1]
  Minimal Effective Concentration: 0.019 ± 0.0078 µM

## O=c1nc(-c2cccnc2)sc2ccccc12 [Compound 2, 2-(3-pyridyl)-4H-1,3-benzothiazin-4-one]
[1]
  Minimal Effective Concentration: 0.041 ± 0.018 µM
